According to ChEMBL document CHEMBL1131315, “Synthesis and anticonvulsant activity of 2(3H)-benzoxazolone and 2(3H)-benzothiazolone derivatives” (J Med Chem, 1998):
Activity calls are given as the source filed them. No cut-off for these calls is given here.

Legend:
[1] = The compound was tested for neurologic toxicity (rotarod) test for 4 hr in mice; no activity or toxicity at 300 mg/kg; assay type: organism-based; parameters: dose 300 mg/kg; conditions: mouse, in vivo
Mus musculus [2] = test: The compound was tested for anticonvulsant activity in subcutaneous pentylenetetrazole seizure test (sc Met) for 30 min in mice; activity at 300 mg/kg; assay type: functional, organism-based; parameters: dose 300 mg/kg
[3] = The compound was tested for neurologic toxicity (rotarod) test for 30 min in mice; activity at 100 mg/kg; assay type: organism-based; parameters: dose 100 mg/kg; conditions: mouse, in vivo, 0.5 h
Mus musculus [4] = test: The compound was tested for anticonvulsant activity in subcutaneous pentylenetetrazole seizure test (sc Met) for 4 hr in mice; activity at 300 mg/kg; assay type: functional, organism-based; parameters: dose 300 mg/kg
Mus musculus [5] = test: The compound was tested for anticonvulsant activity in Maximal electroshock seizure test for 4 hr in mice(ip); active at 300 mg/kg; assay type: functional, organism-based; parameters: dose 300 mg/kg
Mus musculus [6] = test: Anticonvulsant activity in Maximal electroshock seizure test at 100 mg/kg i.p. in mice.; assay type: functional, organism-based; parameters: dose 100 mg/kg
Rattus norvegicus [7] = test: The compound was tested per os dose of 30 mg/kg for 0.5 hours for maximal electroshock test on rats; MES= 2/4; assay type: functional
Mus musculus [8] = test: The compound was determined for the dose (mg/kg) by rotarod test at the time of peak neurotoxic effect in mice on ip administration; assay type: functional
Rattus norvegicus [9] = test: The compound was tested per os dose of 30 mg/kg for 0.25 hours for rotarod toxicity; 0/4; assay type: functional
Rattus norvegicus [10] = test: The compound was tested per os dose of 30 mg/kg for 1 hour for maximal electroshock test on rats; MES= 1/4; assay type: functional
[11] = The compound was tested for neurologic toxicity (rotarod) test for 4 hours in mice; active at 300 mg/kg; assay type: organism-based; parameters: dose 300 mg/kg; conditions: mouse, in vivo
Rattus norvegicus [12] = test: The compound was tested per os dose of 30 mg/kg for 4 hours for maximal electroshock test on rats; MES= 0/4; assay type: functional
Mus musculus [13] = test: The compound was tested to inhibit 50% of induced maximal electroshock seizure in mice on ip administration; assay type: functional
Rattus norvegicus [14] = test: The compound was tested for the effective oral dose to inhibit 50% of the anticonvulsant in rats.(Value in parenthesis indicate 95% confidence limits).; assay type: functional
Mus musculus [15] = test: The compound was tested for anticonvulsant activity in subcutaneous pentylenetetrazole seizure test (sc Met) for 30 min in mice; active at 100 mg/kg; assay type: functional, organism-based; parameters: dose 100 mg/kg
Rattus norvegicus [16] = test: The compound was tested per os dose of 30 mg/kg for 2 hours for rotarod toxicity; 0/4; assay type: functional
[17] = Protective index value is the ratio between ED50 and TD50; assay type: functional
Rattus norvegicus [18] = test: The compound was tested per os dose of 30 mg/kg for 4 hours for rotarod toxicity; 0/4; assay type: functional
Mus musculus [19] = test: Inhibition of s.c. pentylenetetrazole induced seizure in mice following i.p. administration.; assay type: functional
Mus musculus [20] = test: The compound was tested for anticonvulsant activity in Maximal electroshock seizure test (MES) for 4 hr in mice(ip); active at 300 mg/kg; assay type: functional, organism-based; parameters: dose 300 mg/kg
Mus musculus [21] = test: The anticonvulsant activity in subcutaneous pentylenetetrazole seizure test (sc Met) for 4 hr in mice; no activity or no toxicity at 300 mg/kg; assay type: functional, organism-based; parameters: dose 300 mg/kg
Rattus norvegicus [22] = test: The compound was tested per os dose of 30 mg/kg for 0.25 hours for maximal electroshock test on rats; MES= 4/4; assay type: functional
[23] = The compound was tested for time of peak effect (TPE) in hours for its activity in mice on ip administration.; assay type: ADME, organism-based; conditions: mouse, in vivo
[24] = The compound was tested for time of peak effect (TPE) in hours for its toxicity in mice on ip administration.; assay type: organism-based; conditions: mouse, in vivo
Rattus norvegicus [25] = test: The compound was tested per os dose of 30 mg/kg for 0.5 hours for rotarod toxicity; 0/4; assay type: functional
Rattus norvegicus [26] = test: The compound was tested per os dose of 30 mg/kg for 2 hours for maximal electroshock test on rats; MES= 0/4; assay type: functional
[27] = The compound was tested for the toxic dose on oral administration. (Value in parenthesis indicate 95% confidence limits).; assay type: ADME; conditions: rat
Rattus norvegicus [28] = test: The compound was tested per os dose of 30 mg/kg for 1 hour for rotarod toxicity; 0/4; assay type: functional
[29] = The compound was tested for neurologic toxicity (rotarod) test for 30 min in mice; active at 100 mg/kg; assay type: organism-based; parameters: dose 100 mg/kg; conditions: mouse, in vivo, 0.5 h
[30] = biological target: Sigma non-opioid intracellular receptor 1 (Homo sapiens) (UniProt Q99720); test: Ratio between the Ki(nM)values of sigma-2 and sigma-1; assay type: functional
Sequence of Sigma non-opioid intracellular receptor 1 (Homo sapiens) (Q99720 whole entry): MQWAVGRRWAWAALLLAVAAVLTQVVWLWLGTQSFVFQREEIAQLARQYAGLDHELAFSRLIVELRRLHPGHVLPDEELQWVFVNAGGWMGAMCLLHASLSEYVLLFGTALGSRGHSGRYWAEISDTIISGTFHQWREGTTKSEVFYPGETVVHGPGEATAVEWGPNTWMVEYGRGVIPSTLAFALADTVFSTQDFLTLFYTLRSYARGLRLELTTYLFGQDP

Sigma 2 receptor = test: Affinity on sigma 2 receptor using [3H]- DTG as radioligand
Mus musculus [31] = test: Anticonvulsant activity in subcutaneous pentylenetetrazole seizure test for 30 min in mice; No activity/toxicity at 300 mg/kg.; assay type: functional, organism-based; parameters: dose 300 mg/kg
[32] = The compound was tested for neurologic toxicity (rotarod) test for 30 min in mice; active at 300 mg/kg; assay type: organism-based; parameters: dose 300 mg/kg; conditions: mouse, in vivo, 0.5 h
Mus musculus [33] = test: The compound was determined for the dose (mg/kg) by rotarod test at the time of peak neurotoxic effect in mice on ip administration.; assay type: functional
Mus musculus [34] = test: Time of peak effect in mice following i.p. administration.; assay type: functional
Mus musculus [35] = test: The compound was tested to inhibit 50% of induced maximal electroshock seizure in mice on ip administration.; assay type: functional
[36] = The compound was tested for neurologic toxicity (rotarod) test for 4 hours in mice; active at 100 mg/kg; assay type: organism-based; parameters: dose 100 mg/kg; conditions: mouse, in vivo

## CCCCC(=O)c1ccc2c(c1)sc(=O)n2C(C)=O
[1]
  Rotarod toxicity: activity at 100 mg/kg
Mus musculus [2]
  scMet: activity at 300 mg/kg
[3]
  Rotarod toxicity: activity at 100 mg/kg
Mus musculus [4]
  scMet: activity at 300 mg/kg
Mus musculus [5]
  MES: active at 300 mg/kg
Mus musculus [6]
  MES: active at 300 mg/kg

## Cn1c(=O)oc2ccccc21
Rattus norvegicus [7]
  Protected/Tested: 2
Mus musculus [8]
  TD50: 113 mg/kg
Rattus norvegicus [9]
  No. of animals exhibiting toxicity / Number of animals tested: 0
Rattus norvegicus [10]
  Protected/Tested: 1
[11]
  Rotarod toxicity: active at 100 mg/kg
Rattus norvegicus [12]
  Protected/Tested: 0
Mus musculus [13]
  ED50: 50.2 mg/kg
Rattus norvegicus [14]
  ED50: 30.6 mg/kg
Mus musculus [15]
  scMet: active at 100 mg/kg
Rattus norvegicus [16]
  No. of animals exhibiting toxicity / Number of animals tested: 0
[17]
  PI: 16.4
Rattus norvegicus [18]
  No. of animals exhibiting toxicity / Number of animals tested: 0
Mus musculus [19]
  ED50: 132 mg/kg
Mus musculus [20]
  MES: active at 300 mg/kg
Mus musculus [21]
  scMet: active at 100 mg/kg
Rattus norvegicus [22]
  Protected/Tested: 4
[23]
  Activity: 0.25 h
[24]
  Toxicity: 0.25 h
Rattus norvegicus [25]
  No. of animals exhibiting toxicity / Number of animals tested: 0
Rattus norvegicus [26]
  Protected/Tested: 0
[27]
  TD50: > 500 mg/kg
Rattus norvegicus [28]
  No. of animals exhibiting toxicity / Number of animals tested: 0
Mus musculus [6]
  MES: active at 300 mg/kg
[29]
  Rotarod toxicity: active at 100 mg/kg

## O=C(c1ccccc1)c1ccc2c(c1)sc(=O)n2CCN1CCCC1
[30]
  Ratio: 4
Sigma 2 receptor
  Ki: 225 nM
Mus musculus [31]
  scMet: No activity or no toxicity at 300 mg/kg
Mus musculus [19]
  ED50: > 210 mg/kg
Mus musculus [20]
  MES: active at 300 mg/kg
Mus musculus [21]
  scMet: No activity or no toxicity at 300 mg/kg
[24]
  Toxicity: 0.25 h
[32]
  Rotarod toxicity: active at 100 mg/kg
Mus musculus [33]
  TD50: 170 mg/kg
Mus musculus [34]
  Activity: 0.25 h
Mus musculus [6]
  MES: active at 300 mg/kg
Mus musculus [35]
  ED50: 42.5 mg/kg
[36]
  Rotarod toxicity: active at 100 mg/kg
